Experimental findings from patent US9862754B2, “Peptide analogs for treating diseases and disorders” (KeyBioscience AG, priority 2011, dated 2018) are described below.

Bridge positions count the residues as written; N and C are the ends. Ends that are not written are not given here.

Assay [1] addresses T1, T47D cell calcitonin receptors (Homo sapiens, UniProt P30988).
T1 construct: This cell line is known to have the following receptors: calcitonin, androgen, progesterone; endogenous in cells; host or cells: T47D (human breast epithelial cell line)
T1 sequence (P30988 25-474): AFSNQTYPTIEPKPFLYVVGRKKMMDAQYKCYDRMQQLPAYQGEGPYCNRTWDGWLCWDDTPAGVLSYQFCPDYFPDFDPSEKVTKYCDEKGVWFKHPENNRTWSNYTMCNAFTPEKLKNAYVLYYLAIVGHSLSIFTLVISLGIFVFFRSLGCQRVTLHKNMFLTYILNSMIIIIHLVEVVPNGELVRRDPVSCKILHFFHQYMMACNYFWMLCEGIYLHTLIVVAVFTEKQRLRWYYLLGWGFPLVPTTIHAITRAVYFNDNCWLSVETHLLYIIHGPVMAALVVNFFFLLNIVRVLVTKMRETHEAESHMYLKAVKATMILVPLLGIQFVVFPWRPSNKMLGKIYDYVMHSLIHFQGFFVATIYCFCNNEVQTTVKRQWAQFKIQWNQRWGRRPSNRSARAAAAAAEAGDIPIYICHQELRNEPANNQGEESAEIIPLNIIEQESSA
As to the kind of experiment: Example 4: T47D bioassay, binding of sCT analogs to T47D cell calcitonin receptors (cAMP). It is filed as cell-based. Particulars: T47D cells; sCT set at 100% at 1000 pg/mL; various concentrations. On the procedure: sCT analogs at various concentrations were tested in a T47D (human breast epithelial cell line) bioassay. This cell line is known to have the following receptors: calcitonin, androgen, progesterone, glucocrticoid, prolactin and estrogen. The results are presented in FIG. 11 as % cAMP binding relative to sCT which was set at 100% cAMP binding at a concentration of 1000 pg/mL.

The next assay deals with CTX-I. As to the kind of experiment: Example 6: serum CTX-I (RatLaps ELISA), bone resorption in DIO rats. In kind it is in vivo, rat. Particulars: 1 mg/kg p.o. with 150 mg/kg 5-CNAC, 2 hours after treatment, vs sCT. On the procedure:
(§1) The effect of sCT/calcitonin mimetic on bone and cartilage loss was studied in DIO rats. The animals were dosed as described in Table 6 below, and 2 hours after treatment blood sampling was done by heated tail venous puncture.
(§2) Serum CTX-I levels, as an indication of bone resorption, were measured using the RatLaps™ ELISA, and serum CTX-II levels, as an indication of cartilage degradation, were measured using the Serum PC Cartilaps™ ELISA.
For orientation: An ELISA detects its analyte on a solid surface through an enzyme-linked reagent.

A further assay relates to CTX-II. As to the kind of experiment: Example 6: serum CTX-II (Serum PC Cartilaps ELISA), cartilage degradation in DIO rats. In kind it is in vivo, rat. The note with it: 1 mg/kg p.o. with 150 mg/kg 5-CNAC, 2 hours after treatment, vs sCT. On the procedure: as §1, §2
Assay [2] is described as follows: Example 7: combination with metformin in Zucker Diabetic Fatty rats, FPG, PPG, HbA1c. In kind it is in vivo, rat. Particulars: ZDF rats; 8 weeks once daily; metformin 400 mg/kg/day oral, UGP302 5 μg/kg/day s.c. Here is the method: (§3) To assess the potential of UGP302 (SEQ ID NO: 15) in combination with metformin, Zucker Diabetic Fatty rats were used. At the age of 6 weeks 40 rats were randomized into four groups according to HbA1c, FPG and BW. The groups were: Control (Vehicle), Metformin 400 mg/kg/day, UGP302 5 μg/kg/day and the combination of the two molecules in the stated respective amounts. The treatments were given once daily, and metformin was dosed orally, while UGP302 was given subcutaneously, and the animals were treated for 8 weeks. Fasting blood glucose (FPG) and non-fasted blood glucose (PPG) were monitored biweekly, while HbA1c was measured at termination.

The nature of assay [3]: Example 7: oral glucose tolerance test in Zucker Diabetic Fatty rats. It is filed as in vivo, rat. The note with it: ZDF rats; metformin 400 mg/kg/day oral, UGP302 5 μg/kg/day s.c. On the procedure: as §3
(§4) To further assess the effect of both single doses of each molecule and the combination of these at those same doses, the rats underwent an oral glucose tolerance test (OGTT, FIGS. 23A-23B) and an insulin tolerance test (ITT, FIGS. 24A-24B).

A short description of assay [4]: Example 7: insulin tolerance test in Zucker Diabetic Fatty rats. Particulars: ZDF rats; metformin 400 mg/kg/day oral, UGP302 5 μg/kg/day s.c. It is filed as in vivo, rat. On the procedure:
as §3, §4

Assay [5] in a line: Example 1: OGTT after 2 weeks of oral treatment in DIO rats. In kind it is in vivo, rat. Particulars: after 2 weeks of treatment, overnight fasting, 1 mg/kg p.o., vs oral vehicle. On the procedure: Drug administration by per oral (p.o.) gavage b.i.d. (7-8 am and 3-4 pm) during the study period and as single dose in the morning prior to start of OGTT.
Animals were given 2 g/kg single dose dissolved in milliQ H20.
OGTT Following Overnight Fasting (16 h):
Blood sampling and glycemia were measured by heated tail venous puncture.
Whole blood glucose levels were determined with an ACCU-CHEK® Avia blood glucose meter (Roche Diagnostics, Rotkreuz, Switzerland). Blood (approx 300 ul) is collected in 1 ml MiniCollect K3EDTA plasma-tube (Greiner-Bio-One GmbH, Frickenhausen, Germany), inverted, and stored on ice. Tubes are centrifuged 3000×g (5000 rpm in table centrifuge) for 10 min at 4° C. and plasma obtained. Plasma samples are stored at −20° C. until analysis. A total of ˜2.5 ml blood is obtained during OGTT (˜0.3% of body weight).
Statistical analysis was performed by one-way ANOVA followed by the Dunnett's post hoc test for multiple comparison. Student's t-test was performed to compare two paired group. All analysis was performed using GRAPHPAD PRISM software (GraphPad Prism, San Diego, Calif. U.S.A). Incremental area under curve (iAUC) during OGTT was calculated by the trapezoidal method. A value of P<0.05 was considered to be significant. All data are presented as mean±standard error of the mean (SEM). […]

On to “Ac-CSNLSTCVLGKLSQELHKLQTYPRTDVGANAP-NH2 (Ac-CSNLSTCVLGKLSQELHKLQTYPRTDVGANAP-NH2; ends and bridges not checked) [UGP302, calcitonin mimetic]”, for which, in assay [1], the “% cAMP binding relative to sCT” value was “highest level of binding of all the tested compounds”. The “bone resorption (serum CTX-I levels)” value in the assay on CTX-I is on record as “stronger effect in reduction”. Also, the “cartilage degradation (serum CTX-II levels)” value with CTX-II is reported as “stronger effect in reduction”. In assay [2], the “fasting blood glucose (FPG)” value was “pronounced reduction throughout the study” and the “non-fasted blood glucose (PPG)” value was “pronounced reduction throughout the study”. Also, the “glucose tolerance (OGTT)” value in assay [3] is “individually improve”. In addition, in assay [4], the “insulin tolerance (ITT)” value is “individually improve”.

Regarding “salmon calcitonin (CSNLSTCVLGKLSQELHKLQTYPRTNTGSGTP-NH2; disulfide 1-7; ends not checked) [sCT, reference compound]”, the “glucose iAUC during OGTT” value in assay [5] is reported as “significantly reduced glucose iAUC”.
